Reference: the supplement of paper PMC10307832

How the values were obtained:
Test in all cases: relative viability (nuclei count vs DMSO), 5 days (fraction); higher = more cells survive
[1] = compound: CC[C@@H](C)CNCC(=O)N1CCC2=C([C@@H]1COC3=CC=CC(=C3)C)C=CS2 [RU-SKI 43] + O=C(c1cc(Cc2n[nH]c(=O)c3ccccc23)ccc1F)N1CCN(C(=O)C2CC2)CC1 [Olaparib] (partner 8 µM)
Procedure, shortened: (§1)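 A single step with final 0.05% Triton X-100, 1% formaldehyde and 1 ug/ml Hoechst fixed the cells and stained nuclei 5 days after treatment. Lung cancer cell lines in 1536-well plates had been treated by pin tool the day after seeding with one drug alone or a fixed anchor-drug dose plus five library-drug doses (not always all listed) in √10 steps, and nuclei were counted on 4× images. Relative viability is the ratio of nuclei in treated wells to nuclei in vehicle wells, taken as the median of duplicate plates.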

[2] = compound: CCc1c2c(nc3ccc(OC(=O)N4CCC(N5CCCCC5)CC4)cc13)-c1cc3c(c(=O)n1C2)COC(=O)[C@]3(O)CC [Irinotecan] + O=C(CCCCCCC(=O)Nc1ccccc1)NO [Vorinostat] (partner 1 µM)
Procedure, shortened: as §1

[3] = compound: CC[C@@H](C)CNCC(=O)N1CCC2=C([C@@H]1COC3=CC=CC(=C3)C)C=CS2 [RU-SKI 43] + O=C(CCCCCCC(=O)Nc1ccccc1)NO [Vorinostat] (partner 1 µM)
Procedure, shortened: as §1

[4] = compound: CC[C@@H](C)CNCC(=O)N1CCC2=C([C@@H]1COC3=CC=CC(=C3)C)C=CS2 [RU-SKI 43] + NC(=O)Nc1cc(-c2cccc(F)c2)sc1C(=O)N[C@H]1CCCNC1 [AZD7762] (partner 0.2 µM)
Procedure, shortened: as §1

Cell Line	relative viability ([1]; first compound 0.1 µM)	relative viability ([1]; first compound 0.3162 µM)	relative viability ([1]; first compound 1 µM)	relative viability ([1]; first compound 3.162 µM)	relative viability ([1]; first compound 10 µM)	relative viability ([2]; first compound 0.6325 µM)	relative viability ([2]; first compound 2 µM)	relative viability ([2]; first compound 6.325 µM)	relative viability ([2]; first compound 20 µM)	relative viability ([3]; first compound 0.1 µM)	relative viability ([3]; first compound 0.3162 µM)	relative viability ([3]; first compound 1 µM)	relative viability ([3]; first compound 3.162 µM)	relative viability ([3]; first compound 10 µM)	relative viability ([4]; first compound 0.1 µM)	relative viability ([4]; first compound 0.3162 µM)	relative viability ([4]; first compound 1 µM)	relative viability ([4]; first compound 3.162 µM)	relative viability ([4]; first compound 10 µM)
ChaGo-K-1	0.391	0.446	0.413	0.403	0.383	0.443	0.326	0.268	0.243	0.759	0.731	0.853	0.77	0.762	0.877	1.04	0.836	0.921	0.801
NCI-H650	0.404	0.517		0.38	0.406	0.329	0.303	0.134	0.203	0.497	0.369		0.455	0.459	0.944	1.09		1.04	1.06
201T	0.835	0.888	0.843	0.858	0.836	0.325	0.81	0.426	0.28	0.968	1.17	1.09	1.06	0.957	0.628	0.603	0.602	0.531	0.567
NCI-H1915	0.266	0.288	0.25	0.261	0.251	0.307	0.329	0.168	0.147	0.563	0.602	0.639	0.54	0.549	0.699	0.833	0.702	0.672	0.688
NCI-H358	0.548	0.936	0.756	0.636	0.545	0.455	0.246	0.167	0.135	0.642	0.929	0.708	0.793	0.614	0.475	0.585	0.574	0.591	0.484
NCI-H2347	0.547	0.499	0.553	0.504	0.569	0.435	0.631	0.514	0.548	0.511	0.621	0.674	0.595	0.566	0.732	0.74	0.812	0.614	0.642
H3255	0.579	0.594	0.572	0.574	0.529		0.782	0.343	0.311	0.838	0.763	1.1	0.851	0.769	0.843	1.02	1.03	0.839	0.873
NCI-H460	0.389	0.702	0.47	0.49	0.334	0.193	0.218	0.0779	0.0695	0.81	1.3	0.787	0.75	0.565	0.533	0.756	0.787	0.519	0.638
BEN	1.16	1.2	1.09	1.09	1.07	0.544	0.726	0.473	0.545	0.621	0.531	0.665	0.639	0.546	0.801	0.652	0.786	0.642	0.743
